Columns and labels:
[1] = biological target: Serine/threonine-protein kinase pim-1 (Homo sapiens) (UniProt P11309); experiment: Inhibition of PIM1 (unknown origin) at 10 uM incubated for 30 mins in presence of [gamma-33P]ATP by multidrop micro reagent based assay relative to control; values are per cent of control
[2] = biological target: RAC-alpha serine/threonine-protein kinase (Homo sapiens) (UniProt P31749); experiment: Inhibition of PKBalpha (unknown origin) at 10 uM incubated for 30 mins in presence of [gamma-33P]ATP by multidrop micro reagent based assay relative to control; values are per cent of control
Sequence of RAC-alpha serine/threonine-protein kinase (Homo sapiens) (P31749 whole entry): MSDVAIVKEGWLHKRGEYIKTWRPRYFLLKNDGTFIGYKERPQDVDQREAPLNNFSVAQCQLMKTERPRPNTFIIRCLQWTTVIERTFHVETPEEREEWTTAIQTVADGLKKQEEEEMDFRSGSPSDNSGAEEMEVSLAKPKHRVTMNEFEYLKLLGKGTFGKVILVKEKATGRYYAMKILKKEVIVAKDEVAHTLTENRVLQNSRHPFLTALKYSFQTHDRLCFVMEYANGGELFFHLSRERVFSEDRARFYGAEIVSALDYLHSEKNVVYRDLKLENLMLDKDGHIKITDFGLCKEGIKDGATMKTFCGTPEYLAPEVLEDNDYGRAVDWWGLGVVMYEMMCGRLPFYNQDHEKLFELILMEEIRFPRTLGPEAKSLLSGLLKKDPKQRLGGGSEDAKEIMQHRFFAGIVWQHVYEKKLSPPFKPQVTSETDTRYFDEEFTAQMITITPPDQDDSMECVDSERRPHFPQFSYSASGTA

[3] = biological target: T1, Serine/threonine-protein kinase TBK1 (Homo sapiens) (UniProt Q9UHD2); experiment: Inhibition of TBK1 (unknown origin) at 10 uM incubated for 30 mins in presence of [gamma-33P]ATP by multidrop micro reagent based assay relative to control; values are per cent of control
T1 sequence (whole entry): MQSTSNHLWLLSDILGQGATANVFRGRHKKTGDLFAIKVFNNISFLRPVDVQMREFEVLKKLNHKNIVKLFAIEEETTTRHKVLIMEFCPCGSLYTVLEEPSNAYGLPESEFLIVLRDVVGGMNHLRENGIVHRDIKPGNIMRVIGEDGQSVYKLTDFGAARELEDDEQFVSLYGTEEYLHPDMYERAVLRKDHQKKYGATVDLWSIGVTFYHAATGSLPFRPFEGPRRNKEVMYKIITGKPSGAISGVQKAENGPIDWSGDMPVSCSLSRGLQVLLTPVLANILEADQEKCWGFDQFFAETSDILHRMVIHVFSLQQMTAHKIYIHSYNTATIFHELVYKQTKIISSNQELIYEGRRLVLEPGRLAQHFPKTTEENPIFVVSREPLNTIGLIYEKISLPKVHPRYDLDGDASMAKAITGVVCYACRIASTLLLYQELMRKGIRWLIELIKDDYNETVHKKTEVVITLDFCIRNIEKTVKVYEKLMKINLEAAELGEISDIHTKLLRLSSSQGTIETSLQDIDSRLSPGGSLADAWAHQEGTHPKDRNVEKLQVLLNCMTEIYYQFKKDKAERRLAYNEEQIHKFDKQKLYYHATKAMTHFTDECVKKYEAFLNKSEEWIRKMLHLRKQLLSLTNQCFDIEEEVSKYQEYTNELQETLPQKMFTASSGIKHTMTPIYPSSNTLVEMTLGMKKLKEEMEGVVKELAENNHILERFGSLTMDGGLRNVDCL

[4] = biological target: Mitogen-activated protein kinase 8 (Homo sapiens) (UniProt P45983); experiment: Inhibition of JNK1 (unknown origin) at 10 uM incubated for 30 mins in presence of [gamma-33P]ATP by multidrop micro reagent based assay relative to control; values are per cent of control
Sequence of Mitogen-activated protein kinase 8 (Homo sapiens) (P45983 whole entry): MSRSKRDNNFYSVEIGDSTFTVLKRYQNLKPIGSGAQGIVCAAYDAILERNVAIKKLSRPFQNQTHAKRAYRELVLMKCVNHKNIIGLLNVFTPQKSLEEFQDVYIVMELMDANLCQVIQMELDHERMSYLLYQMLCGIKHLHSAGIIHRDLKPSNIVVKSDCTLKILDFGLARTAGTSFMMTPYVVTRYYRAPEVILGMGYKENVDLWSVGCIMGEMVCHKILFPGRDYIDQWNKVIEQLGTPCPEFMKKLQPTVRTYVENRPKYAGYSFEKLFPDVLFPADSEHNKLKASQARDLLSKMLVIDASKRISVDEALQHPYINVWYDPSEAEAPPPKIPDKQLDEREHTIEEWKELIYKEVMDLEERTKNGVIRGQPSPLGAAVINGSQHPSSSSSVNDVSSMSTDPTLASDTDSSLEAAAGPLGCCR

[5] = biological target: Dual specificity mitogen-activated protein kinase kinase 1 (Homo sapiens) (UniProt Q02750); experiment: Inhibition of MKK1 (unknown origin) at 10 uM incubated for 30 mins in presence of [gamma-33P]ATP by multidrop micro reagent based assay relative to control
Sequence of Dual specificity mitogen-activated protein kinase kinase 1 (Homo sapiens) (Q02750 whole entry): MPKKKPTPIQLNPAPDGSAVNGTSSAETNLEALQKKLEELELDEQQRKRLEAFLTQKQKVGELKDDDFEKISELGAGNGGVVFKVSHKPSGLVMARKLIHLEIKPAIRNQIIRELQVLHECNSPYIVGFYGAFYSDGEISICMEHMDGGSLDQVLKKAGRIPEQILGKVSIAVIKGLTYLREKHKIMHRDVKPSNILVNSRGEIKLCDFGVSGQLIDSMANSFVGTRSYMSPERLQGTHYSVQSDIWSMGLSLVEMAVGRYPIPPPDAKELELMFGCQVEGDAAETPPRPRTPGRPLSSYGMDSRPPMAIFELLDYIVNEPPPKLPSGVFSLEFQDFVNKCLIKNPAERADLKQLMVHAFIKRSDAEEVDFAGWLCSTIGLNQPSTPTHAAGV

[6] = biological target: T2, Mitogen-activated protein kinase kinase kinase kinase 2 (Homo sapiens) (UniProt Q12851); experiment: Inhibition of GCK (unknown origin) at 10 uM incubated for 30 mins in presence of [gamma-33P]ATP by multidrop micro reagent based assay relative to control; values are per cent of control
T2 sequence (whole entry): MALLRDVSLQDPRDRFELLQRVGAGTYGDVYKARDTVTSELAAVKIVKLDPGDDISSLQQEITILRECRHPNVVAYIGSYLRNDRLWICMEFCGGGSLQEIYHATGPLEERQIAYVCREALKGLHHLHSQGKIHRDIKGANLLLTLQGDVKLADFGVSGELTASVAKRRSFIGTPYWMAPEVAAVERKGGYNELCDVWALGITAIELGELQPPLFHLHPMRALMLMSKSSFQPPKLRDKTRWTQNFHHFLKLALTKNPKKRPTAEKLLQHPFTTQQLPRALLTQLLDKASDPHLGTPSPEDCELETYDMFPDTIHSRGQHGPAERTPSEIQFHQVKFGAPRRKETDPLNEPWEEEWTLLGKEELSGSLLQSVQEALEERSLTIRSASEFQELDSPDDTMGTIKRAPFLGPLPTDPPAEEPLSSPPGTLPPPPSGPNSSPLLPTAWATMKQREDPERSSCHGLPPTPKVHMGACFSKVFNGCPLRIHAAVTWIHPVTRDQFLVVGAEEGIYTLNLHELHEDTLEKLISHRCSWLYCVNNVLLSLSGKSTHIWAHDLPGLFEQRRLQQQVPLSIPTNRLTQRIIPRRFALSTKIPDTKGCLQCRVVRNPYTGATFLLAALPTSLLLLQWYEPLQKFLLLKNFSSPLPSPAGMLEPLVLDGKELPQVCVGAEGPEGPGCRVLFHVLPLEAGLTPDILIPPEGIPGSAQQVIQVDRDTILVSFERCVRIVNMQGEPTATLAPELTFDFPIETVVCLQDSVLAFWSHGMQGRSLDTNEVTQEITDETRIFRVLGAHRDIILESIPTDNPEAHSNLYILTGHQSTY

[7] = biological target: Serine/threonine-protein kinase pim-1 (Homo sapiens) (UniProt P11309); experiment: Inhibition of PIM1 (unknown origin) at 1 uM incubated for 30 mins in presence of [gamma-33P]ATP by multidrop micro reagent based assay relative to control; values are per cent of control
[8] = species on record: Homo sapiens; experiment: Inhibition of PHK (unknown origin) at 1 uM incubated for 30 mins in presence of [gamma-33P]ATP by multidrop micro reagent based assay relative to control; values are per cent of control
[9] = biological target: Serine/threonine-protein kinase PAK 4 (Homo sapiens) (UniProt O96013); experiment: Inhibition of PAK4 (unknown origin) at 1 uM incubated for 30 mins in presence of [gamma-33P]ATP by multidrop micro reagent based assay relative to control
Sequence of Serine/threonine-protein kinase PAK 4 (Homo sapiens) (O96013 whole entry, looked up): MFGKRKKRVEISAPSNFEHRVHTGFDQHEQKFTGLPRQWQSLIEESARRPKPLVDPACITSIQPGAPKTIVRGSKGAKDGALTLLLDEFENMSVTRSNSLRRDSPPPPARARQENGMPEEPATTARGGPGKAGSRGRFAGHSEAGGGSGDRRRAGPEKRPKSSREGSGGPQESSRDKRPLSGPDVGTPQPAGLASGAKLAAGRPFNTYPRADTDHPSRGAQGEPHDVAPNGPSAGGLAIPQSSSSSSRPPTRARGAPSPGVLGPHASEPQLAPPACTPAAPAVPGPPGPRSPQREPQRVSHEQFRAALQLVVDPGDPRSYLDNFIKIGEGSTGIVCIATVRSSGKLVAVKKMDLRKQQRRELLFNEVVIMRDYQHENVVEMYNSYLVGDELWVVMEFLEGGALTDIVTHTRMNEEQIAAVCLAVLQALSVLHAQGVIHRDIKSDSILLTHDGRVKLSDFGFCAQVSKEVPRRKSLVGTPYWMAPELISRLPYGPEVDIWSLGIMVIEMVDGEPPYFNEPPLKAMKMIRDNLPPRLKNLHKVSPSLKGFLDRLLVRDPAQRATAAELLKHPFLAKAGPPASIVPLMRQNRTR

Sequence of Serine/threonine-protein kinase pim-1 (Homo sapiens) (P11309 whole entry, looked up): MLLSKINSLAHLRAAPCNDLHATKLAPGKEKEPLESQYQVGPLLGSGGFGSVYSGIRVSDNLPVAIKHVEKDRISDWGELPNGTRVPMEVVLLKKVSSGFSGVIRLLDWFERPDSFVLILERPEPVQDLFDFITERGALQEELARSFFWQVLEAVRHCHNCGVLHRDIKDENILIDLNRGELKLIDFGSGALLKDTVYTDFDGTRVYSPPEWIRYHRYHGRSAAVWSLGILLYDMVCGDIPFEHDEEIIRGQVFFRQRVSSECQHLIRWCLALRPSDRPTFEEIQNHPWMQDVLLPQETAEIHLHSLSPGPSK

Structure (SMILES) | residual activity [1] | residual activity [2] | residual activity [3] | residual activity [4] | inhibition [5] | residual activity [6] | residual activity [7] | residual activity [8] | residual activity [9]
C[C@@H](N)[C@H]1CC[C@H](C(=O)Nc2ccncc2)CC1 | 94% | 56% | 69% | 106% | 71% | 89% |  |  | 
CCn1c(-c2nonc2N)nc2cnc(Oc3cccc(NC(=O)c4ccc(OCCN5CCOCC5)cc4)c3)cc21 [GSK-269962A] |  |  |  |  |  |  | 31% |  | 
O=S(=O)(c1cccc2cnccc12)N1CCCNCC1 [FASUDIL] | 84% | 27% | 110% | 115% | 41% | 55% |  |  | 
CCN(CC)CCNC(=O)c1c(C)[nH]c(/C=C2\C(=O)Nc3ccc(F)cc32)c1C |  |  |  |  |  |  |  | 2% | 
Cc1cncc2cccc(S(=O)(=O)N3CCCNC[C@@H]3C)c12 |  |  |  |  |  |  |  |  | 99%
CC1=C(C(=O)Nc2cc3cn[nH]c3cc2F)C(c2ccc(C(F)(F)F)cc2)CC(=O)N1 (stereo not drawn) |  |  |  |  |  |  | 89% | 97% | 95%

Source: ChEMBL document CHEMBL5705888, “Substrate specificity and inhibitors of LRRK2, a protein kinase mutated in Parkinson's disease” (Biochem J, 2009)
